This test deals with P388 leukemia ip, CD2F1 mice, survival T/C. Put plainly: NCI In Vivo Anticancer Drug Screen. Data for tumor model P388 Leukemia (intraperitoneal) in CD2F1 (CDF1) mice. The following applies: endpoint: median survival time, higher = longer survival. The method in brief:
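Mice carrying the transplanted tumor received test compound or vehicle. Survival was recorded in each group, and the value is the treated-group measurement divided by that of the vehicle-treated control group.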

The mark [1] stands for this setting: dose: 60.0 mg/kg/injection, schedule: Q01DX005 (ip), vehicle: saline with Tween-80.
Where [2] appears, read: dose: 120.0 mg/kg/injection, schedule: Q01DX005 (ip), vehicle: saline with Tween-80.
The mark [3] stands for this setting: dose: 240.0 mg/kg/injection, schedule: Q01DX005 (ip), vehicle: saline with Tween-80.
Where [4] appears, read: dose: 25.0 mg/kg/injection, schedule: Q01DX009 (ip), vehicle: water.
Setting [5] is: dose: 50.0 mg/kg/injection, schedule: Q01DX009 (ip), vehicle: water.
The mark [6] stands for this setting: dose: 100.0 mg/kg/injection, schedule: Q01DX009 (ip), vehicle: water.
[7] abbreviates: dose: 200.0 mg/kg/injection, schedule: Q01DX009 (ip), vehicle: water.
[8] abbreviates: dose: 50.0 mg/kg/injection, schedule: Q01DX009 (ip), vehicle: Klucel (hydroxypropylcellulose) (HPC).
[9] abbreviates: dose: 100.0 mg/kg/injection, schedule: Q01DX009 (ip), vehicle: Klucel (hydroxypropylcellulose) (HPC).
[10] abbreviates: dose: 200.0 mg/kg/injection, schedule: Q01DX009 (ip), vehicle: Klucel (hydroxypropylcellulose) (HPC).

Values joined by “and” are separate entries in the source; they are usually repeats but may differ in a detail not shown here. Equal entries are not always repeated. Inconclusive results and toxic doses are left out.

For `COC(=O)CC(O)CCCCCCCCCCCCC(C)C` (configuration not stated), the T/C is, setting by setting: (dose: 8.75 mg/kg/injection, schedule: Q01DX005 (ip), vehicle: Klucel + Tween-80) 92 % of control; (dose: 17.5 mg/kg/injection, schedule: Q01DX005 (ip), vehicle: Klucel + Tween-80) 100 % of control; (dose: 35.0 mg/kg/injection, schedule: Q01DX005 (ip), vehicle: Klucel + Tween-80) 97 % of control.

On to `C=CCC1(C)C=C(C)C(=O)C(C)=C1`, for which the T/C was 105 % of control under setting [1], 102 % of control under setting [2] and 104 % of control under setting [3].

On to `O=C(Nc1ccc([N+](=O)[O-])cc1)c1c2ccccc2nc2ccccc12`, for which the T/C runs as follows: (dose: 50.0 mg/kg/injection, schedule: Q01DX005 (ip), vehicle: suspension in saline) 92 % of control; (dose: 100.0 mg/kg/injection, schedule: Q01DX005 (ip), vehicle: suspension in saline) 100 % of control; (dose: 200.0 mg/kg/injection, schedule: Q01DX005 (ip), vehicle: suspension in saline) 104 % of control.

In the case of `CSc1nc2[nH]c(=O)[nH]c(=O)c2[nH]1`, the T/C runs as follows: (dose: 50.0 mg/kg/injection, schedule: Q01DX005 (ip), vehicle: saline with Tween-80) 95 % of control; (dose: 100.0 mg/kg/injection, schedule: Q01DX005 (ip), vehicle: saline with Tween-80) 94 % of control; (dose: 200.0 mg/kg/injection, schedule: Q01DX005 (ip), vehicle: saline with Tween-80) 108 % of control.

As for `NCCC(=O)OCN1C(=O)C2C3C=CC(C2C1=O)C1C2C(=O)N(COC(=O)CCN)C(=O)C2C31` (configuration not stated), the T/C runs as follows: (dose: 12.5 mg/kg/injection, schedule: Q01DX009 (ip), vehicle: water) 88 % of control; under setting [4], 102 % of control; under setting [5], 99 % of control; under setting [6], 100 % of control; under setting [7], 118 % of control.

For `COc1ccccc1NC(=O)c1cc2cc(Br)ccc2cc1O`, the T/C is, setting by setting: under setting [1], 100 % of control; under setting [2], 102 % of control; under setting [3], 108 % of control.

For `COc1cccc(CCC(=O)O)c1OC`, the T/C under setting [4] is 103 % of control; the T/C under setting [5] was 100 % of control; the T/C under setting [6] is 108 % of control; the T/C under setting [7] is 91 % of control; the T/C (dose: 400.0 mg/kg/injection, schedule: Q01DX009 (ip), vehicle: water) is 92 % of control.

Consider `COC(=O)c1cc(=O)nc(NNC(C)=O)s1`, for which the T/C was 103 % of control (dose: 50.0 mg/kg/injection, schedule: Q01DX005 (ip), vehicle: Klucel (hydroxypropylcellulose) (HPC)); 96 % of control (dose: 100.0 mg/kg/injection, schedule: Q01DX005 (ip), vehicle: Klucel (hydroxypropylcellulose) (HPC)); 106 % of control (dose: 200.0 mg/kg/injection, schedule: Q01DX005 (ip), vehicle: Klucel (hydroxypropylcellulose) (HPC)).

For `COc1c(OC(C)=O)c(OC(C)=O)cc2c1-c1ccc(OC)c(=O)cc1C(NC(C)=O)CC2` (configuration not stated), the T/C (dose: 0.25 mg/kg/injection, schedule: Q01DX005 (ip), vehicle: saline) is 117 % of control; the T/C (dose: 0.5 mg/kg/injection, schedule: Q01DX005 (ip), vehicle: saline) was 123 % of control; the T/C (dose: 4.0 mg/kg/injection, schedule: Q01DX005 (ip), vehicle: saline) was 155 % of control; the T/C (dose: 8.0 mg/kg/injection, schedule: Q01DX005 (ip), vehicle: saline) was 163 % of control; the T/C (dose: 16.0 mg/kg/injection, schedule: Q01DX005 (ip), vehicle: saline) was 172 % of control.

In the case of `Cc1ccc2c(c1)S(=O)(=O)NC2=O`, the T/C under setting [1] was 95 % of control, the T/C under setting [2] was 92 % of control and the T/C under setting [3] is 95 % of control.

With `CC1(C)O[S+](c2ccccc2)c2ccccc21` (configuration not stated), the T/C under setting [8] is 102 % of control, the T/C under setting [9] was 107 % of control and the T/C under setting [10] was 108 % of control.

As to `COc1cc(C(O)CCBr)c(OC)cc1C` (configuration not stated), the T/C runs as follows: under setting [1], 100 % of control; under setting [2], 100 % of control; under setting [3], 95 % of control.

`COc1cc2c(cc1OC)C1CC3(CCN1CC2)CC(=O)NC3=O` (configuration not stated): the T/C (dose: 50.0 mg/kg/injection, schedule: Q01DX005 (ip), vehicle: saline) is 97 % of control; the T/C (dose: 100.0 mg/kg/injection, schedule: Q01DX005 (ip), vehicle: saline) is 99 % of control; the T/C (dose: 200.0 mg/kg/injection, schedule: Q01DX005 (ip), vehicle: saline) was 90 % of control.

In the case of `C=C(C)C1CC2(C)C(C)CC(OC(=O)/C(C)=C\C)CC2C(OC(=O)/C(C)=C\C)C1O` (configuration not stated), the T/C was 86 % of control (dose: 12.5 mg/kg/injection, schedule: Q01DX009 (ip), vehicle: Klucel (hydroxypropylcellulose) (HPC)); 96 % of control (dose: 25.0 mg/kg/injection, schedule: Q01DX009 (ip), vehicle: Klucel (hydroxypropylcellulose) (HPC)); 96 % of control under setting [8]; 100 % of control under setting [9].

`CCOC(=O)c1c(C)[nH]oc1=O`: the T/C was 109 % of control (dose: 25.0 mg/kg/injection, schedule: Q01DX009 (ip), vehicle: saline sonified); 100 % of control (dose: 50.0 mg/kg/injection, schedule: Q01DX009 (ip), vehicle: saline sonified); 100 % of control (dose: 100.0 mg/kg/injection, schedule: Q01DX009 (ip), vehicle: saline sonified).

On to `COc1ccc2ccc(/C=C/[N+](=O)[O-])cc2c1OC`, for which the T/C by setting is: (dose: 3.13 mg/kg/injection, schedule: Q01DX009 (ip), vehicle: other) 109 % of control; (dose: 6.25 mg/kg/injection, schedule: Q01DX009 (ip), vehicle: other) 108 % of control; (dose: 12.5 mg/kg/injection, schedule: Q01DX009 (ip), vehicle: other) 110 % of control; (dose: 25.0 mg/kg/injection, schedule: Q01DX009 (ip), vehicle: other) 106 % of control.

Regarding `CC(=O)OC1C2C=CC1C=C2` (configuration not stated), the T/C runs as follows: (dose: 50.0 mg/kg/injection, schedule: Q01DX009 (ip), vehicle: saline with Tween-80) 104 % of control; (dose: 100.0 mg/kg/injection, schedule: Q01DX009 (ip), vehicle: saline with Tween-80) 93 % of control; (dose: 200.0 mg/kg/injection, schedule: Q01DX009 (ip), vehicle: saline with Tween-80) 100 % of control.

With `NC(=S)c1ccc(N=Cc2ccccc2)cc1`, the T/C is, setting by setting: (dose: 12.5 mg/kg/injection, schedule: Q01DX001 (ip), vehicle: Klucel (hydroxypropylcellulose) (HPC)) 101 % of control; (dose: 25.0 mg/kg/injection, schedule: Q01DX001 (ip), vehicle: Klucel (hydroxypropylcellulose) (HPC)) 101 % of control; (dose: 50.0 mg/kg/injection, schedule: Q01DX001 (ip), vehicle: Klucel (hydroxypropylcellulose) (HPC)) 95 % of control.

For `C=CN=NNc1cc(OC)ccc1OC`, the T/C by setting is: (dose: 100.0 mg/kg/injection, schedule: Q04DX003 (ip), vehicle: saline + Tween-80 + alcohol) 105 % of control; (dose: 200.0 mg/kg/injection, schedule: Q04DX003 (ip), vehicle: saline + Tween-80 + alcohol) 103 % of control; (dose: 400.0 mg/kg/injection, schedule: Q04DX003 (ip), vehicle: saline + Tween-80 + alcohol) 102 % of control.

As to `COC(=O)CC1(C(=O)OC)c2ccc3ccccc3c2N2CCCC21` (configuration not stated), the T/C reads like this: (dose: 100.0 mg/kg/injection, schedule: Q01DX001 (ip), vehicle: saline) 102 % of control; (dose: 200.0 mg/kg/injection, schedule: Q01DX001 (ip), vehicle: saline) 100 % of control; (dose: 400.0 mg/kg/injection, schedule: Q01DX001 (ip), vehicle: saline) 100 % of control.

As to `CC(C)(C)OC(=O)NC(CCC(=O)O)(Cc1ccccc1)C(=O)NC(CCC(=O)O)(Cc1ccccc1)C(=O)OCc1ccccc1` (configuration not stated), the T/C is, setting by setting: (dose: 6.25 mg/kg/injection, schedule: Q01DX005 (ip), vehicle: saline with Tween-80) 98 % of control; (dose: 12.5 mg/kg/injection, schedule: Q01DX005 (ip), vehicle: saline with Tween-80) 105 % of control; (dose: 25.0 mg/kg/injection, schedule: Q01DX005 (ip), vehicle: saline with Tween-80) 88 % of control.

For the compound `O=C(O)c1cccc(O)c1O`, the T/C runs as follows: (dose: 100.0 mg/kg/injection, schedule: Q01DX009 (ip), vehicle: saline) 101 % of control and 104 % of control; (dose: 200.0 mg/kg/injection, schedule: Q01DX009 (ip), vehicle: saline) 89 % of control and 96 % of control; (dose: 600.0 mg/kg/injection, schedule: Q01DX009 (ip), vehicle: saline) 101 % of control and 89 % of control.

Take `CCCCCCCCCCCCCCCCS(=O)(=O)N/N=C(/c1ccc(Cl)cc1)N1CCCCC1`: the T/C under setting [8] is 100 % of control, the T/C under setting [9] is 102 % of control and the T/C under setting [10] is 92 % of control.

For the origin of these results see PubChem BioAssay AID330 (DTP/NCI, 2004).
